pIC50: −log10 of the molar value. Converted amounts (≈) assume the structure as drawn. One block for each compound: values may come before it.
What was measured:
[1] = tested on: Escherichia coli; test: Antibacterial activity against aminoglycosides-susceptible Escherichia coli 25922 by double microdilution method; format: functional; details: ATCC 25922
[2] = tested on: Escherichia coli; test: Antibacterial activity against aminoglycosides-susceptible Escherichia coli R477-100 by double microdilution method; format: functional
[3] = tested on: Escherichia coli; test: Antibacterial activity against Escherichia coli BL21 by double microdilution method; format: functional
[4] = tested on: Staphylococcus epidermidis; test: Antibacterial activity against aminoglycosides-susceptible Staphylococcus epidermidis by double microdilution method; format: functional
[5] = tested on: Escherichia coli; test: Inhibition of protein translation in Escherichia coli S30 cell extract using circular DNA with pBESTluc after 60 mins; format: functional; details: Escherichia coli, 1 h; read-out: IC50
[6] = tested on: Bacillus subtilis; test: Antibacterial activity against aminoglycosides-susceptible Bacillus subtilis by double microdilution method; format: functional
[7] = tested on: Escherichia coli; test: Antibacterial activity against aminoglycosides-resistant Escherichia coli BL21 harboring pSF815 encode for bifunctional AAC(6')/APH(2\") resistance enzyme by double microdilution method; format: functional
[8] = tested on: Escherichia coli; test: Ratio of MIC for Escherichia coli XL1 blue harboring pET9d encode for APH(3')-1a resistance enzyme to MIC for Escherichia coli XL1 blue; format: functional
[9] = tested on: Escherichia coli; test: Antibacterial activity against kanamycin-resistant Escherichia coli AG100B by double microdilution method; format: functional
[10] = tested on: Escherichia coli; test: Ratio of MIC for aminoglycosides-resistant Escherichia coli BL21 harboring pET11d encode for APH(3')-2b resistance enzyme to MIC for Escherichia coli BL21; format: functional
[11] = tested on: Escherichia coli; test: Ratio of MIC for aminoglycosides-resistant Escherichia coli BL21 harboring pETSACG1 encode for APH(3')-3a resistance enzyme to MIC for Escherichia coli BL21; format: functional
[12] = tested on: Escherichia coli; test: Antibacterial activity against aminoglycosides-resistant Escherichia coli BL21 harboring pET11d encode for APH(3')-2b resistance enzyme by double microdilution method; format: functional
[13] = tested on: Escherichia coli; test: Antibacterial activity against Escherichia coli XL1 blue harboring pET9d encode for APH(3')-1a resistance enzyme by double microdilution method; format: functional
[14] = tested on: Escherichia coli; test: Antibacterial activity against Escherichia coli XL1 blue by double microdilution method; format: functional
[15] = tested on: Escherichia coli; test: Antibacterial activity against aminoglycosides-resistant Escherichia coli BL21 harboring pETSACG1 encode for APH(3')-3a resistance enzyme by double microdilution method; format: functional
[16] = tested on: Escherichia coli; test: Ratio of MIC for aminoglycosides-resistant Escherichia coli BL21 harboring pSF815 encode for bifunctional AAC(6')/APH(2\") resistance enzyme to MIC for Escherichia coli BL21; format: functional
[17] = tested on: Escherichia coli; test: Antibacterial activity against kanamycin-resistant Escherichia coli AG100A by double microdilution method; format: functional
[18] = Acute toxicity in iv dosed mouse at pH 6.6 administered for 4 days; format: organism-based; details: in vivo
[19] = tested on: Escherichia coli; test: Resistance index, ratio of MIC for Escherichia coli ATCC 35218 in 15th subculture to MIC for Escherichia coli ATCC 35218 in first subculture; format: functional
[20] = Inhibition of Escherichia coli topoisomerase 4 using supercoiled pBR322 DNA as substrate by agarose gel electrophorosis method; details: read-out: IC50
[21] = Inhibition of Escherichia coli DNA gyrase using relaxed pBR322 DNA as substrate by agarose gel electrophorosis method; details: read-out: IC50
[22] = tested on: Bacillus spizizenii; test: Resistance index, ratio of MIC for Bacillus subtilis ATCC 6633 in 15th subculture to MIC for Bacillus subtilis ATCC 6633 in first subculture; format: functional

MIC [1]: 3 µg/mL (≈ 3.25 µM)
MIC [2]: 6 µg/mL (≈ 6.5 µM)
MIC [3]: 0.2 µg/mL (≈ 0.217 µM)
MIC [4]: 6 µg/mL (≈ 6.5 µM)
pIC50 [5]: 5.09
MIC [6]: 1.5 µg/mL (≈ 1.63 µM)
SMILES: NC[C@H]1O[C@H](O[C@H]2[C@H](O)[C@@H](O[C@H]3O[C@H](CO)[C@@H](O)[C@H](N)[C@H]3O)[C@H](NCc3cn(CCN4CCN(c5cc6c(cc5F)c(=O)c(C(=O)O)cn6C5CC5)CC4)nn3)C[C@@H]2N)[C@H](O)[C@@H](O)[C@@H]1O

SMILES: NC[C@H]1O[C@H](O[C@H]2[C@H](O)[C@@H](O[C@H]3O[C@H](CO)[C@@H](O)[C@H](N)[C@H]3O)[C@H](NC(=O)CCc3cn(Cc4cccc(CN5CCN(c6cc7c(cc6F)c(=O)c(C(=O)O)cn7C6CC6)CC5)c4)nn3)C[C@@H]2N)[C@H](O)[C@@H](O)[C@@H]1O
MIC [1]: 18 µg/mL (≈ 17.3 µM)
MIC [7]: 1.5 µg/mL (≈ 1.44 µM)
MIC [2]: 24 µg/mL (≈ 23.1 µM)
Ratio [8]: 2
MIC [9]: 48 µg/mL (≈ 46.1 µM)
Ratio [10]: 2
Ratio [11]: 2
MIC [3]: 0.8 µg/mL (≈ 0.768 µM)
MIC [12]: 1.5 µg/mL (≈ 1.44 µM)
MIC [4]: 18 µg/mL (≈ 17.3 µM)
MIC [13]: 24 µg/mL (≈ 23.1 µM)
MIC [14]: 12 µg/mL (≈ 11.5 µM)
MIC [15]: 1.5 µg/mL (≈ 1.44 µM)
Ratio [16]: 2
MIC [17]: 1.5 µg/mL (≈ 1.44 µM)
MIC [6]: 9 µg/mL (≈ 8.64 µM)

MIC [1]: 6 µg/mL (≈ 5.95 µM)
MIC [2]: 12 µg/mL (≈ 11.9 µM)
MIC [4]: 24 µg/mL (≈ 23.8 µM)
MIC [6]: 1.5 µg/mL (≈ 1.49 µM)
SMILES: NC[C@H]1O[C@H](O[C@H]2[C@H](O)[C@@H](O[C@H]3O[C@H](CO)[C@@H](O)[C@H](N)[C@H]3O)[C@H](NC(=O)CCCc3cn(CC(O)CN4CCN(c5cc6c(cc5F)c(=O)c(C(=O)O)cn6C5CC5)CC4)nn3)C[C@@H]2N)[C@H](O)[C@@H](O)[C@@H]1O (stereo not given in full)

SMILES: NCC[C@H](O)C(=O)N[C@@H]1C[C@H](N)[C@@H](O[C@H]2O[C@H](CN)[C@@H](O)[C@H](O)[C@H]2O)[C@H](O)[C@H]1O[C@H]1O[C@H](CO)[C@@H](O)[C@H](N)[C@H]1O [AMIKACIN]
LD50 at 96 h [18]: 300 mg/kg

SMILES: NC[C@H]1O[C@H](O[C@H]2[C@H](O)[C@@H](O[C@H]3O[C@H](CO)[C@@H](O)[C@H](N)[C@H]3O)[C@H](NCc3cn(Cc4cccc(CN5CCN(c6cc7c(cc6F)c(=O)c(C(=O)O)cn7C6CC6)CC5)c4)nn3)C[C@@H]2N)[C@H](O)[C@@H](O)[C@@H]1O
MIC [1]: 24 µg/mL (≈ 24 µM)
MIC [7]: 0.8 µg/mL (≈ 0.801 µM)
MIC [2]: 36 µg/mL (≈ 36 µM)
Ratio [8]: 2
MIC [9]: 36 µg/mL (≈ 36 µM)
Ratio [10]: 1
Ratio [11]: 1
MIC [3]: 1.5 µg/mL (≈ 1.5 µM)
MIC [12]: 0.8 µg/mL (≈ 0.801 µM)
MIC [4]: 18 µg/mL (≈ 18 µM)
MIC [13]: 24 µg/mL (≈ 24 µM)
MIC [14]: 12 µg/mL (≈ 12 µM)
MIC [15]: 0.8 µg/mL (≈ 0.801 µM)
Ratio [16]: 1
MIC [17]: 1.5 µg/mL (≈ 1.5 µM)
MIC [6]: 12 µg/mL (≈ 12 µM)

SMILES: NC[C@@H]1O[C@H](O[C@H]2[C@@H](O)[C@H](O[C@@H]3[C@@H](O)[C@H](N)C[C@H](N)[C@H]3O[C@H]3O[C@H](CN)[C@@H](O)[C@H](O)[C@H]3N)O[C@@H]2CO)[C@H](N)[C@@H](O)[C@@H]1O [FRAMYCETIN]
LD50 at 96 h [18]: 24 mg/kg

SMILES: NC[C@H]1O[C@H](O[C@H]2[C@H](O)[C@@H](O[C@H]3O[C@H](CO)[C@@H](O)[C@H](N)[C@H]3O)[C@H](NCc3cn(Cc4ccc(CN5CCN(c6cc7c(cc6F)c(=O)c(C(=O)O)cn7C6CC6)CC5)cc4)nn3)C[C@@H]2N)[C@H](O)[C@@H](O)[C@@H]1O
Ratio [19]: 4
MIC [1]: 6 µg/mL (≈ 6.01 µM)
MIC [7]: 0.1 µg/mL (≈ 0.1 µM)
MIC [2]: 6 µg/mL (≈ 6.01 µM)
Ratio [8]: 1
MIC [9]: 12 µg/mL (≈ 12 µM)
Ratio [10]: 1
Ratio [11]: 1
MIC [3]: 0.8 µg/mL (≈ 0.801 µM)
MIC [12]: 0.1 µg/mL (≈ 0.1 µM)
MIC [4]: 3 µg/mL (≈ 3 µM)
MIC [13]: 3 µg/mL (≈ 3 µM)
MIC [14]: 3 µg/mL (≈ 3 µM)
MIC [15]: 0.1 µg/mL (≈ 0.1 µM)
pIC50 [5]: 4.97
Ratio [16]: 1
MIC [17]: 0.28 µg/mL (≈ 0.28 µM)
pIC50 [20]: 5.10
MIC [6]: 3 µg/mL (≈ 3 µM)
pIC50 [21]: 5.59
Ratio [22]: 4

— ChEMBL document CHEMBL4033618, “Covalently linked kanamycin - Ciprofloxacin hybrid antibiotics as a tool to fight bacterial resistance” (Bioorg Med Chem, 2017)
